Reference: paper PMC7902631, “An ESCRT-dependent step in fatty acid transfer from lipid droplets to mitochondria through VPS13D−TSG101 interactions” (Nature Communications, 2021)
Each block holds one molecule with its values, some of them ahead of it.

How the values were obtained:
VPS13D-LTD [1] = biological target: T1, VPS13D-LTD (Homo sapiens, UniProt Q5THJ4); test: native PAGE co-migration, fluorescence; format: binding; conditions: labelled compound; 4 °C, 3 h; 1.5 mg/ml protein
T1 construct: lipid transfer domain, residues 1-320; pET28a-6xHis-SUMO fusion, tag cleavage not mentioned; expressed in E. coli (DE3), Ni-NTA purified
T1 sequence (Q5THJ4 1-320): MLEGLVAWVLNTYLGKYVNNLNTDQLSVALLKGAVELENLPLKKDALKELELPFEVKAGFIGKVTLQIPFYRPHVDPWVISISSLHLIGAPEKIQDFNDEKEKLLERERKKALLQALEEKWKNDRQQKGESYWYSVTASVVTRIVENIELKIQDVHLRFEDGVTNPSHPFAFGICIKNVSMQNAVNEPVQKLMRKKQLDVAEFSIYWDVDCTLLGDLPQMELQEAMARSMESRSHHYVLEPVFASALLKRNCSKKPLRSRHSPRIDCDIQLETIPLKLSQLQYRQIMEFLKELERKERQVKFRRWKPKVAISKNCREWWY

VPS13D-LTD [2] = biological target: T1, VPS13D-LTD; test: competition with BODIPY-C16, native PAGE; format: binding; conditions: unlabeled, non-BSA-conjugated palmitic acid; competitor of BODIPY-C16
VAB-ΔPSAP-GFP (human) = test: co-IP; GFP-Trap agarose beads (ChromoTek) on lysates of HEK293 cells, by the manufacturer's protocol; GFP-tagged protein held, partner detected by western blot (anti-TSG101 or anti-Halo); 5% input

Molecule: O=C(O)CCCCCCCCCCCNc1ccc([N+](=O)[O-])c2nonc12 [C12, NBD-C12]
native PAGE co-migration, fluorescence (VPS13D-LTD [1]): purified VPS13D-LTD could bind NBD-labeled fatty acids C12 (NBD-C12)

Molecule: CCCCCCCCCCCCCCCC(=O)O [palmitic acid]
competition with BODIPY-C16, native PAGE (VPS13D-LTD [2]): palmitic acid, but not OA, could sufficiently outcompete BODIPY-C16 for binding to VPS13D-LTD

reduction of the interaction against VAB-GFP (VAB-ΔPSAP-GFP (human)): 60%
Molecule: Halo-TSG101 (from UniProt Q99816 1-390) (natural protein)
